Holding throughout (experiment): biochemical
The target in assay [1] is T1, panel of 374 wild-type kinases (Homo sapiens, UniProt O96017).
T1 construct: purchased Reaction Biology Corporation
The following applies: read-out: % Enzyme Activity (relative to DMSO controls), CHK2.

Assay [2] has as its target T2, panel of 374 wild-type kinases (Homo sapiens, UniProt P00533).
T2 construct: purchased Reaction Biology Corporation
The following applies: read-out: % Enzyme Activity (relative to DMSO controls), EGFR.

Assay [3] deals with T3, panel of 374 wild-type kinases (Homo sapiens, UniProt P10721).
T3 construct: purchased Reaction Biology Corporation
The following applies: read-out: % Enzyme Activity (relative to DMSO controls), c-Kit.

Assay [4] addresses T4, panel of 374 wild-type kinases (Homo sapiens, UniProt Q12866).
T4 construct: purchased Reaction Biology Corporation
T4 sequence (Q12866 21-999): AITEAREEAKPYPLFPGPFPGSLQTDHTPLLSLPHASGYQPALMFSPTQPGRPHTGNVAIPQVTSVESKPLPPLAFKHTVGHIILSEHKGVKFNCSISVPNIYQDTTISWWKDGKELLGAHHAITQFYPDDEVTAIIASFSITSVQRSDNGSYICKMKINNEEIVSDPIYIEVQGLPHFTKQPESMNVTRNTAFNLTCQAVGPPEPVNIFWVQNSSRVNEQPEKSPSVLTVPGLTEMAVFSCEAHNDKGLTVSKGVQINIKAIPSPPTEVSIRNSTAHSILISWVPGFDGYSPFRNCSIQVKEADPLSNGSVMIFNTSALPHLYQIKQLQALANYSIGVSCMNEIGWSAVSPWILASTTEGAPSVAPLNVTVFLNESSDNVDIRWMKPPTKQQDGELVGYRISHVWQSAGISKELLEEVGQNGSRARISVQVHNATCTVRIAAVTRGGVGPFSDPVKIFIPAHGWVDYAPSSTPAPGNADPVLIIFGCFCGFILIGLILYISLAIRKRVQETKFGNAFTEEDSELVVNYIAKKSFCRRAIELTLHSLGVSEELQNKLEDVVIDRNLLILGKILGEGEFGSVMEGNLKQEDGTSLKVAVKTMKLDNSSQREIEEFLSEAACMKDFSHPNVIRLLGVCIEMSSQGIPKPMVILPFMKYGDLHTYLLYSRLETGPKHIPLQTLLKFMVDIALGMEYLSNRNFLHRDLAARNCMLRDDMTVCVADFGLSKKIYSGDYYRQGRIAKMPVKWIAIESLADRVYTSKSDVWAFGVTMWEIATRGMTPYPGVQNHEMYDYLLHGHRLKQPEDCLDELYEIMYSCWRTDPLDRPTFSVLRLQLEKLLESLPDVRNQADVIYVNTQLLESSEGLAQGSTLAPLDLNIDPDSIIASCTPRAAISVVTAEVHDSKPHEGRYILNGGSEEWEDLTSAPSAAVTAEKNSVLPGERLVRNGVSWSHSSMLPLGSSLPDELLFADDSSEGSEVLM
The following applies: read-out: % Enzyme Activity (relative to DMSO controls), c-MER.

Assay [5] deals with T5, panel of 374 wild-type kinases (Homo sapiens, UniProt Q86UE8).
T5 construct: purchased Reaction Biology Corporation
The following applies: read-out: % Enzyme Activity (relative to DMSO controls), kinase TLK2.

Assay [6] addresses T6, panel of 374 wild-type kinases (Homo sapiens, UniProt Q9NRH2).
T6 construct: purchased Reaction Biology Corporation
T6 sequence (Q9NRH2 1-765): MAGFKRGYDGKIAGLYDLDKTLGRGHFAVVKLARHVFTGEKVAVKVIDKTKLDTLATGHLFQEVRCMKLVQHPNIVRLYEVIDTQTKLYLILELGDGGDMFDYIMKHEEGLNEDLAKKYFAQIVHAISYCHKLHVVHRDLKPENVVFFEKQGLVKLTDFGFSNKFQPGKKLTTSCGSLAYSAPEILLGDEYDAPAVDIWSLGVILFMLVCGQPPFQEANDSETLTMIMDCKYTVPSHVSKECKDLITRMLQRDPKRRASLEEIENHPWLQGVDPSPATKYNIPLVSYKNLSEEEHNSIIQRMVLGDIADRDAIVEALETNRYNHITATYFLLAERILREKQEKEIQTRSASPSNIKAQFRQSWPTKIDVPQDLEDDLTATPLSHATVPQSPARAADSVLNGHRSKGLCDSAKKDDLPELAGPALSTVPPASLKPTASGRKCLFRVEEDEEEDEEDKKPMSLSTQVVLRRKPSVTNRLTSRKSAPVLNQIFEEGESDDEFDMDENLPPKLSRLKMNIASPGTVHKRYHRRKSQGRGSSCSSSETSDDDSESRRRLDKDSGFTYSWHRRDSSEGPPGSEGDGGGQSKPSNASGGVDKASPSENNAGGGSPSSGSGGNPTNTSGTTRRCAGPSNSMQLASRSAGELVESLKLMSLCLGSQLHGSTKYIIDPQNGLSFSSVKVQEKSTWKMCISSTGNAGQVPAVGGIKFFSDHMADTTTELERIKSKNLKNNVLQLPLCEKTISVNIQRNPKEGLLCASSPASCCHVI
The note with it: read-out: % Enzyme Activity (relative to DMSO controls), kinase SNRK.

Assay [7] concerns the target T7, panel of 374 wild-type kinases (Homo sapiens, UniProt Q9UQB9).
T7 construct: purchased Reaction Biology Corporation
T7 sequence (Q9UQB9 1-309): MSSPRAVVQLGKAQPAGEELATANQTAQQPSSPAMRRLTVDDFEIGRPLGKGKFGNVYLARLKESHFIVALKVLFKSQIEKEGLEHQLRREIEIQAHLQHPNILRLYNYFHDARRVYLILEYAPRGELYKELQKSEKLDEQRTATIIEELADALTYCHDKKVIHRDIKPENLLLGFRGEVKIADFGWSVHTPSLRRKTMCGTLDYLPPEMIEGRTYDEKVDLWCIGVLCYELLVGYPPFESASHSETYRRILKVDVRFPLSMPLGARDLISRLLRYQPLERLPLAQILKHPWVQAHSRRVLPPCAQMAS
The note with it: read-out: % Enzyme Activity (relative to DMSO controls), Aurora C.

T2 sequence (P00533 25-1210): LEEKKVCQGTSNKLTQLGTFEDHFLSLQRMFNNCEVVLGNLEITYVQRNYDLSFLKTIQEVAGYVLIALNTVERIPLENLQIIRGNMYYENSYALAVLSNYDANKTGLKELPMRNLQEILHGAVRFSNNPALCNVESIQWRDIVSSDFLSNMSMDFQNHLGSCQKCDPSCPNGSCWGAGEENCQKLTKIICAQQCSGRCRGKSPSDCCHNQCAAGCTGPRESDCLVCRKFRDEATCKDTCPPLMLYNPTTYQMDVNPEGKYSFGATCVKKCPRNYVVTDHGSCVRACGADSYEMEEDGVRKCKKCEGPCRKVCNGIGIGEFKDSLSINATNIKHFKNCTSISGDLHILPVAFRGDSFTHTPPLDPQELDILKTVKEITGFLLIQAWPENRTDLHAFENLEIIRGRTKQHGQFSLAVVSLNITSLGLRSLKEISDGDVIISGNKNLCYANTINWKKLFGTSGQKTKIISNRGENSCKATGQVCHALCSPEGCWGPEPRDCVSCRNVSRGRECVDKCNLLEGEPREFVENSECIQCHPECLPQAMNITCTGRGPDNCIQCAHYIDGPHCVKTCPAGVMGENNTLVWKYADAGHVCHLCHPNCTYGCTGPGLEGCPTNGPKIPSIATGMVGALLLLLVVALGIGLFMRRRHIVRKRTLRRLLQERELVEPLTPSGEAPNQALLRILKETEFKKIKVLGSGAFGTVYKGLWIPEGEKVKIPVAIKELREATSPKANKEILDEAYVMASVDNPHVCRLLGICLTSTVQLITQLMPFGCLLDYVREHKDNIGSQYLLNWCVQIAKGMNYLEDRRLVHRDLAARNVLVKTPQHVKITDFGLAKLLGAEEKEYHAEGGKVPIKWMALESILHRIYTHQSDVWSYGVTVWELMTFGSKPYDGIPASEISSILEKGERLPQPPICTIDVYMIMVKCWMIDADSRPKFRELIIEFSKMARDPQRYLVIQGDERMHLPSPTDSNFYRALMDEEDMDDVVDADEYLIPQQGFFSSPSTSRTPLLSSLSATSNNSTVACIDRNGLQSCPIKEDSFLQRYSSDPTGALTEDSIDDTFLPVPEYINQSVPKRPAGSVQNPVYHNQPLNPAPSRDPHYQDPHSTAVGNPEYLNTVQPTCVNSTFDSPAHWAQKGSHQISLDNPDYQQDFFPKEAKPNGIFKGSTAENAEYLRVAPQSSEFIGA
T5 sequence (Q86UE8 whole entry): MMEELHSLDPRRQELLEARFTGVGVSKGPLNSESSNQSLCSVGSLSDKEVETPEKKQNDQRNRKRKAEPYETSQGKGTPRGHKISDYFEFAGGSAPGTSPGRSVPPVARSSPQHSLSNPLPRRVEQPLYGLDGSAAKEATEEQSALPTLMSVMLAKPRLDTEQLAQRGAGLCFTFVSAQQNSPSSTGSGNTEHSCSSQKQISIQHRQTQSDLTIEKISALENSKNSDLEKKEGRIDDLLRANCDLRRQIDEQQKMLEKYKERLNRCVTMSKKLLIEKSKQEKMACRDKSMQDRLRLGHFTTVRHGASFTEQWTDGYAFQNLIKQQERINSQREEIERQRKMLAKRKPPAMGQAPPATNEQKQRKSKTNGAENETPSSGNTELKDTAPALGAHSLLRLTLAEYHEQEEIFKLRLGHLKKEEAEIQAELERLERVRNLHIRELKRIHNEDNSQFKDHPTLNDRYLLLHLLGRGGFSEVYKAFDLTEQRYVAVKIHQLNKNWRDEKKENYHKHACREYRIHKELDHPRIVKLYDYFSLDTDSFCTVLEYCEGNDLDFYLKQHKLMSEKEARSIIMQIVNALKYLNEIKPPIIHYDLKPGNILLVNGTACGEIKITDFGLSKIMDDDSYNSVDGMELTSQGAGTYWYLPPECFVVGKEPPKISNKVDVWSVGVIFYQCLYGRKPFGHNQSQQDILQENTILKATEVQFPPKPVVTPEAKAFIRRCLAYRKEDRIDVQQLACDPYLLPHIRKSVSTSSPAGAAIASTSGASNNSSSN
T3 sequence (P10721 26-976): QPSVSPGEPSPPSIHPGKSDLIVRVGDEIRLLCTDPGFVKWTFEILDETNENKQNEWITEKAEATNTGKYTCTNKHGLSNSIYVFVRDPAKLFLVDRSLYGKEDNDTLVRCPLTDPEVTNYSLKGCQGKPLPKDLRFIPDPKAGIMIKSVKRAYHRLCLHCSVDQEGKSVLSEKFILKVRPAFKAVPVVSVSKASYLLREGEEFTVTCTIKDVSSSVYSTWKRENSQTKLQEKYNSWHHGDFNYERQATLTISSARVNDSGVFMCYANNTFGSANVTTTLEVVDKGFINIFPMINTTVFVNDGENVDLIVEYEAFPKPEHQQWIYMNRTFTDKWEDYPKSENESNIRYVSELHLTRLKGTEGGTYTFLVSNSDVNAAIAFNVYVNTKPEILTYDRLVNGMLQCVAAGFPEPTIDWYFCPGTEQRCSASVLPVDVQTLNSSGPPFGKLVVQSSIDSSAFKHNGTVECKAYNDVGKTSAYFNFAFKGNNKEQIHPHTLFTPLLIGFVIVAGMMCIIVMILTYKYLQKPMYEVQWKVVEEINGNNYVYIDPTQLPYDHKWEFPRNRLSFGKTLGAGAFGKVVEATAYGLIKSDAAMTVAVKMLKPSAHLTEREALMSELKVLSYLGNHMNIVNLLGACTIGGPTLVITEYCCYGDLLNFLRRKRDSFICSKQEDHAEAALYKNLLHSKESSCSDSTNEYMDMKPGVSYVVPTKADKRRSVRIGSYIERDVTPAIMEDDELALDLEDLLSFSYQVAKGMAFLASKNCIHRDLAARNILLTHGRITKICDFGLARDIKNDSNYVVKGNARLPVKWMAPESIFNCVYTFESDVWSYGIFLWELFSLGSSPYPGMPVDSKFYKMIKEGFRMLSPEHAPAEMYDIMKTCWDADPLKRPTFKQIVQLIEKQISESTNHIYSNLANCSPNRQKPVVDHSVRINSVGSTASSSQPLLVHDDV
T1 sequence (O96017 whole entry): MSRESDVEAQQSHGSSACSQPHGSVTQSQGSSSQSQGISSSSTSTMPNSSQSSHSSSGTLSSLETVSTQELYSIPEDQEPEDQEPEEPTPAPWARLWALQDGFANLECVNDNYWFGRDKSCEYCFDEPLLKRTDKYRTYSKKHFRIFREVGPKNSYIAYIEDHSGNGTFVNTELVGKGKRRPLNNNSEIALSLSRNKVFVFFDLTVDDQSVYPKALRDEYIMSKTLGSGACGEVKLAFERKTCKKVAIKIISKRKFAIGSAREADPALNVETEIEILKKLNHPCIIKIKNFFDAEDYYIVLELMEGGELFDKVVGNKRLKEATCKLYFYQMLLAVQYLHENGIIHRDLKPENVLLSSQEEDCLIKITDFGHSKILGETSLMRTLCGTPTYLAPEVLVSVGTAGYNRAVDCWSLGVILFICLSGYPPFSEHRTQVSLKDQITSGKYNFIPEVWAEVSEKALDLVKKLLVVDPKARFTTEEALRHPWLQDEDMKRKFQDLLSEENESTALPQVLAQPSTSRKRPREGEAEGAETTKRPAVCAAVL

For `O=C(Nc1cnn(-c2csc(C(=O)NC3COC3)c2)c1)Nc1ccccc1Cl` [Compound 17, 4-(4-(3-(2-chlorophenyl)ureido)-1H-pyrazol-1-yl)-N-(oxetan-3-yl)thiophene-2-carboxamide], the remaining activity at 5 µM in assay [1] was 97.8%; in assay [2], 99.7%; in assay [3], 89.2%; in assay [4] it was 92.7%; in assay [5] it was 99.1%; in assay [6] it was 96.8%. Also, the remaining activity at 5 µM in assay [7] stood at 104%.

Regarding `O=C(Nc1cnn(-c2csc(C(=O)NC3COC3)c2)c1)Nc1c(F)cccc1Cl` [Compound 25, 4-(4-(3-(2-chloro-6-fluorophenyl)ureido)-1H-pyrazol-1-yl)-N-(oxetan-3-yl)thiophene-2-carboxamide], the remaining activity at 5 µM in assay [1] was determined as 91.5%; in assay [2], 89.4%; in assay [3], 94%; in assay [4], 77.1%; in assay [5], 109%; in assay [6] it was 98.8%. Besides, the remaining activity at 5 µM in assay [7] came to 58.5%.

`Cc1sc(C(=O)NC2COC2)cc1-n1cc(NC(=O)Nc2c(F)cccc2Cl)cn1` [Compound 27, 4-(4-(3-(2-chloro-6-fluorophenyl)ureido)-1H-pyrazol-1-yl)-5-methyl-N-(oxetan-3-yl)thiophene-2-carboxamide]: the remaining activity at 10 µM was 95.2% in assay [1] (10 uM); 98.5% in assay [2] (10 uM); 64.4% in assay [3] (10 uM); 103% in assay [4] (10 uM); 97.2% in assay [5] (10 uM); 102% in assay [6] (10 uM). Besides, the remaining activity at 10 µM in assay [7] (10 uM) was 104%.

Values taken from patent US20240246942A1, “KINASE INHIBITORS FOR THE TREATMENT OF NEURODEGENERATIVE DISEASES” (priority 2020, published 2024).
